Results published in PMC8550792, “Evolution of kinase polypharmacology across HSP90 drug discovery” (Cell Chemical Biology, 2021).

Assays:
Test in all cases: biochemical
Format in all cases: biochemical
382 unique human kinases [1] = target: T1, 382 unique human kinases (Homo sapiens, UniProt Q6XUX3); conditions: RIPK5, 10 uM; for remaining activity at 10 µM: read-out: % Enzyme Activity (relative to DMSO controls)
T1 construct: purchased Reaction Biology (HotSpot contract assay)
T1 sequence (Q6XUX3 1-929): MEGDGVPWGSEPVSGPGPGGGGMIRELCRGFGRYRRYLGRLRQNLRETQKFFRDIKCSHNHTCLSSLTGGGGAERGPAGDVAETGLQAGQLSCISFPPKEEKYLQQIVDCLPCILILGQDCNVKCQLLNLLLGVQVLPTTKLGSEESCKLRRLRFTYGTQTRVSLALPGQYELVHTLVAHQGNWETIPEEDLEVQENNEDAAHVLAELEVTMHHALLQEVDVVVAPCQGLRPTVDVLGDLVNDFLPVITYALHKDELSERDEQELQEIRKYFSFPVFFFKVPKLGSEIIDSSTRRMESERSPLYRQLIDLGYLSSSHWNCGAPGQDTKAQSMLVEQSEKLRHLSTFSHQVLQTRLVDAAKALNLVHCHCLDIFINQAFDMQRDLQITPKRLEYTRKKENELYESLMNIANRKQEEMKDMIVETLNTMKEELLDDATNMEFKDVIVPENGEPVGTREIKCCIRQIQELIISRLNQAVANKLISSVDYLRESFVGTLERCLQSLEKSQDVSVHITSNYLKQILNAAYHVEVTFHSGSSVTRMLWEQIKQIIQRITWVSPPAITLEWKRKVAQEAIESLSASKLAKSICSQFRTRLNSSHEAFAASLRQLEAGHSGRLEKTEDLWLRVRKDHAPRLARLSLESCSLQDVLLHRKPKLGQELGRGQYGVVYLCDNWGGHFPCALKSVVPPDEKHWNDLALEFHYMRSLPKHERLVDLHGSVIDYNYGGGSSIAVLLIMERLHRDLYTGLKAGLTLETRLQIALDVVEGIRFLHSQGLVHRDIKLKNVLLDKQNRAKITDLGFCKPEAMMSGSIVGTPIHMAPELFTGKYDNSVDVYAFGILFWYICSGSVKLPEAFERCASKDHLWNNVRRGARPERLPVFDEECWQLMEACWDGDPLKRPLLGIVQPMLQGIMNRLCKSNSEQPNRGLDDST

382 unique human kinases [2] = target: T2, 382 unique human kinases (Homo sapiens, UniProt P54760); conditions: EPHB4, [ATP] 20 µM, compound 10 uM; for remaining activity at 10 µM: read-out: % Enzyme Activity (relative to DMSO controls)
T2 construct: purchased Reaction Biology (HotSpot contract assay)
T2 sequence (P54760 16-987): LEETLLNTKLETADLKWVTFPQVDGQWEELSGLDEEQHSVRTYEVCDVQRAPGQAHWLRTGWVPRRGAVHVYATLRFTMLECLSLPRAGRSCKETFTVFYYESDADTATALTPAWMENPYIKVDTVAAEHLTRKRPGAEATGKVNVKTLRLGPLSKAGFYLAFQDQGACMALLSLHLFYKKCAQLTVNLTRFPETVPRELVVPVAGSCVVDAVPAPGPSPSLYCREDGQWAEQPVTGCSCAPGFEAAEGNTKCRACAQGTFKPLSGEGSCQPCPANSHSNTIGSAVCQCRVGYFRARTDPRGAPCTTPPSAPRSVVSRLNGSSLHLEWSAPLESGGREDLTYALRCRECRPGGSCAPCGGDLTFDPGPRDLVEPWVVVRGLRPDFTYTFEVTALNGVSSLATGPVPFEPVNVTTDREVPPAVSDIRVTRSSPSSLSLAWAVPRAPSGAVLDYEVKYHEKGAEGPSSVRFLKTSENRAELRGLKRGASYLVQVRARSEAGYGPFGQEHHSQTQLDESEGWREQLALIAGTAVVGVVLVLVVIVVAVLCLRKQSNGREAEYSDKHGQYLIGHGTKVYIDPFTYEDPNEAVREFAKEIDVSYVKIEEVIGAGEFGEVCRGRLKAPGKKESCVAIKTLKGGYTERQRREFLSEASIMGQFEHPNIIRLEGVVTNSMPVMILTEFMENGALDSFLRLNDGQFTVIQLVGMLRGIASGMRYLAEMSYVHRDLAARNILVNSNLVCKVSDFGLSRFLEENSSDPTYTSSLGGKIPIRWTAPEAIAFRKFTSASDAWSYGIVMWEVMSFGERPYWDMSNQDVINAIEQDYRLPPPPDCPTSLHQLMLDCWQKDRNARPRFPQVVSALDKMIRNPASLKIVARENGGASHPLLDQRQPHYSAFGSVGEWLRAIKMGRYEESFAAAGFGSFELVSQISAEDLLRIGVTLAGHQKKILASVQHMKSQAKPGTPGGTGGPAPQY

382 unique human kinases [3] = target: T3, 382 unique human kinases (Homo sapiens, UniProt Q13177); conditions: PAK2, 10 uM; for remaining activity at 10 µM: read-out: % Enzyme Activity (relative to DMSO controls)
T3 construct: purchased Reaction Biology (HotSpot contract assay)
T3 sequence (Q13177 whole entry): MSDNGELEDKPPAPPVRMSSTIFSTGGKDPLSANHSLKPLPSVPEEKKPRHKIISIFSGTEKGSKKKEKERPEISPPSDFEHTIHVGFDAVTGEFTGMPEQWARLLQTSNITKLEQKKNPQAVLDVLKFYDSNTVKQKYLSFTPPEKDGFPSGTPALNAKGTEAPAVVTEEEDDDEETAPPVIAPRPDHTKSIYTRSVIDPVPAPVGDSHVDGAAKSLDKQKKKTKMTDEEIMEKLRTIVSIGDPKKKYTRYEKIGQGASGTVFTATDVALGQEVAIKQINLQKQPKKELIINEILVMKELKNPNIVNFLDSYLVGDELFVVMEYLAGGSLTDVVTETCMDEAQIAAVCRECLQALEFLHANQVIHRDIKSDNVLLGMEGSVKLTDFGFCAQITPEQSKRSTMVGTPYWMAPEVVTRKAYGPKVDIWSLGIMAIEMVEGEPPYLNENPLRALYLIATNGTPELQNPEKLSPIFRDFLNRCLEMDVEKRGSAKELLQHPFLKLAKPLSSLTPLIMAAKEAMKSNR

SMILES | remaining activity at 10 µM (382 unique human kinases [1]) | remaining activity at 10 µM (382 unique human kinases [2]) | remaining activity at 10 µM (382 unique human kinases [3]) | % Enzyme Activity (relative to DMSO controls) (382 unique human kinases [2]) | % Enzyme Activity (relative to DMSO controls) (382 unique human kinases [3]) | % Enzyme Activity (relative to DMSO controls) (382 unique human kinases [1])
CC(C)c1cc(-c2n[nH]c(=O)n2-c2ccc3c(ccn3C)c2)c(O)cc1O [Ganetespib (STA9090)] | 95.4% | – | – | – | – | –
CC(C)c1cc(-c2n[nH]c(=O)n2-c2ccc3c(ccn3C)c2)c(O)cc1O [Ganetespib] | – | 33.1% | 99.6% | – | – | –
CCNC(=O)c1noc(-c2cc(C(C)C)c(O)cc2O)c1-c1ccc(CN2CCOCC2)cc1 [Luminespib] | – | 82.2% | 99.3% | 81.04% | 99.27% | –
CCNC(=O)c1noc(-c2cc(C(C)C)c(O)cc2O)c1-c1ccc(CN2CCOCC2)cc1 [Luminespib (AUY-922)] | 79.8% | – | – | – | – | 77.60%
